{"source": "patent US20250345446A1", "about": "(Draupnir Bio ApS, priority 2022, published 2025)", "key": {"[1]": {"biological_target": "T1, soluble ectodomain of sortilin-6his (Homo sapiens, UniProt Q99523, V650M)", "T1 construct": "the soluble ectodomain of sortilin-6his is measured by microscale thermophoresis (MST)", "T1 sequence (Q99523 with tags, fused parts or gaps V650M)": "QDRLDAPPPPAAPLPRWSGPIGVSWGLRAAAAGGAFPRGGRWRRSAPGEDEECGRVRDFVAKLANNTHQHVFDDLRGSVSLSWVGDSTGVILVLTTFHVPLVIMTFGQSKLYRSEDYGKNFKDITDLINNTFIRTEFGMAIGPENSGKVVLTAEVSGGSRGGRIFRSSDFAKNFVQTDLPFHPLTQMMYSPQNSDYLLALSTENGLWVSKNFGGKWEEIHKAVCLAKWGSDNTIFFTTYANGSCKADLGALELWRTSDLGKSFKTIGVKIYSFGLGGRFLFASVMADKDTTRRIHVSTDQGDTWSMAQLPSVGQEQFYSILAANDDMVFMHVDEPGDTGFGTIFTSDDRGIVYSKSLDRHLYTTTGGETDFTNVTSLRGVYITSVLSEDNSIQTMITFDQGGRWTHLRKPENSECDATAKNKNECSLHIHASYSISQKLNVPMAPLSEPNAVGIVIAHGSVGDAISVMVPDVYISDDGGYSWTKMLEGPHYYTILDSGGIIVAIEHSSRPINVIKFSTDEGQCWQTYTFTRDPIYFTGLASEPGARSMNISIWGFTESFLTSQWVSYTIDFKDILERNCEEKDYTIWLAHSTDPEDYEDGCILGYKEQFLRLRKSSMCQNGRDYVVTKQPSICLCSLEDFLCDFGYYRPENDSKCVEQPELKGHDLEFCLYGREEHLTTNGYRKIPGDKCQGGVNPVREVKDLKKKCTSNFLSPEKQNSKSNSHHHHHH", "assay": "MST binding to soluble ectodomain of sortilin-6his", "details": "Table 4; small molecule bifunctional compounds; MST; read-out: KD score, binding to sortilin (Kd)"}, "[2]": {"system": "HEK293 cells expressing full length sortilin receptor", "assay": "Cellular uptake of NA650 in HEK293/sortilin cells", "type": "cell-based", "details": "Table 6; NA650 (100 nM), 3 h, biotin warhead compounds", "experimental": "Cellular uptake of NA650 was investigated in HEK293 cells expressing full length sortilin receptor (Petersen et. al.). Cells were seeded in poly-L-lysine coated 96-well plates (Perkin Elmer) (40K/well) in 50 μL culture medium (DMEM (Lonza)+10% FBS (SigmaAldrich)+1% penicillin-streptomycin (SigmaAldrich)+1% GlutaMAX (Gibco)+100 μg/mL Zeocin (Invitrogen)) and incubated overnight in cell incubator (37° C., humidified, 5% CO2).\nCulture medium was replaced with assay medium (DMEM (Lonza)+10% fetal bovine serum (SigmaAldrich)+1% penicillin-streptomycin (SigmaAldrich)+1% GlutaMAX (Gibco)) containing NA650 (Invitrogen) (100 nM) (Thermo Fischer) and peptidic bifunctional compounds (9.8 nM to 10 μM). Cells were incubated for 3 h in cell incubator before they were washed in dPBS (Bionordika). The DyLight650 signal in the cell layer was detected using a fluorescence plate reader (BMG Labtech Clariostar).\nCellular uptake of NA650 was investigated in HEK293 cells expressing full length sortilin receptor using a methodology analogous to example 3."}, "[3]": {"biological_target": "T2, Streptavidin-d2 and Sortilin-6His (UniProt P22629+Q99523, V650M)", "T2 construct": "ternary complex formation composed of streptavidin, bifunctional compound and sortilin-6his", "assay": "TR-FRET ternary complex formation streptavidin / small molecule bifunctional compound / sortilin", "type": "binding", "details": "Table 5; 5 μM-0.6 pM, […] incubation"}}, "data": [{"smiles": "CC(C)(C)CC[C@H](NC(=O)c1ccc(Oc2cccc(OCCOCCOCCOCCOCCOCCNC(=O)CCCC[C@@H]3SC[C@@H]4NC(=O)N[C@@H]43)c2)nc1)C(=O)O", "note": "(stereo in doubt) [BF025]", "values": [{"measurement": "Kd", "setting": "[1]", "result": "10 to 250", "unit": "nM"}, {"measurement": "AUC score, target internalization", "setting": "[2]", "result": "+ (AUC < 100)"}, {"measurement": "AUC score, ternary complex formation", "setting": "[3]", "result": "+ (AUC < 25.000)"}]}, {"smiles": "CC(C)(C)CC[C@H](NC(=O)c1ccc(Oc2cccc(OCCOCCOCCOCCOCCOCCOCCNC(=O)CCCC[C@@H]3SC[C@@H]4NC(=O)N[C@@H]43)c2)nc1)C(=O)O", "note": "[BF019, (2S)-2-[[6-[3-[2-[2-[2-[2-[2-[2-[2-[5-[(3aS,4S,6aR)-2-oxo-1,3,3a,4,6,6a-hexahydrothieno[3,4-d]imidazol-4-yl]pentanoyl-amino]ethoxy]ethoxy]ethoxy]ethoxy]ethoxy]ethoxy]ethoxy]phenoxy]pyridine-3-carbonyl]amino]-5,5-dimethyl-hexanoic acid]", "values": [{"measurement": "Kd", "setting": "[1]", "result": "1 to 10", "unit": "nM"}, {"measurement": "AUC score, target internalization", "setting": "[2]", "result": "+ (AUC < 100)"}, {"measurement": "AUC score, ternary complex formation", "setting": "[3]", "result": "+ (AUC < 25.000)"}]}, {"smiles": "CC(C)(C)CC[C@H](NC(=O)c1ccc(Oc2cccc3c(C(=O)NCCCNC(=O)CCOCCOCCOCCOCCNC(=O)CCCC[C@@H]4SC[C@@H]5NC(=O)N[C@@H]54)cccc23)nc1)C(=O)O", "note": "[BF020, (2S)-2-[[6-[[5-[3-[3-[2-[2-[2-[2-[5-[(3aS,4S,6aR)-2-oxo-1,3,3a,4,6,6a-hexahydrothieno[3,4-d]imidazol-4-yl]pentanoylamino]ethoxy]ethoxy]ethoxy]ethoxy]propanoylamino]propylcarbamoyl]-1-naphthyl]oxy]pyridine-3-carbonyl]amino]-5,5-dimethyl-hexanoic acid]", "values": [{"measurement": "Kd", "setting": "[1]", "result": "10 to 250", "unit": "nM"}, {"measurement": "AUC score, target internalization", "setting": "[2]", "result": "++ (AUC > 100)"}, {"measurement": "AUC score, ternary complex formation", "setting": "[3]", "result": "++ (AUC > 25.000)"}]}, {"smiles": "CC(C)(C)CC[C@H](NC(=O)c1ccc(Oc2cccc(OCCOCCOCCOCCOCCOCCOCCOCCNC(=O)CCCC[C@@H]3SC[C@@H]4NC(=O)N[C@@H]43)c2)nc1)C(=O)O", "note": "[BF017, (2S)-2-[[6-[3-[2-[2-[2-[2-[2-[2-[2-[2-[5-[(3aS,4S,6aR)-2-oxo-1,3,3a,4,6,6a-hexahydrothieno[3,4-d]imidazol-4-yl]pentanoylamino]ethoxy]ethoxy]ethoxy]ethoxy]ethoxy]ethoxy]ethoxy]ethoxy]phenoxy]pyridine-3-carbonyl]amino]-5,5-dimethyl-hexanoic acid]", "values": [{"measurement": "Kd", "setting": "[1]", "result": "1 to 10", "unit": "nM"}, {"measurement": "AUC score, target internalization", "setting": "[2]", "result": "++ (AUC > 100)"}, {"measurement": "AUC score, ternary complex formation", "setting": "[3]", "result": "+ (AUC < 25.000)"}]}, {"smiles": "CC(C)(C)CC[C@H](NC(=O)c1ccc(Oc2cccc(C(=O)NCCOCCOCCOCCOCCOCCOCCNC(=O)CCCC[C@@H]3SC[C@@H]4NC(=O)N[C@@H]43)c2)nc1)C(=O)O", "note": "[BF023, (2S)-2-[[6-[3-[2-[2-[2-[2-[2-[2-[2-[5-[(3aS,4S,6aR)-2-oxo-1,3,3a,4,6,6a-hexahydrothieno[3,4-d]imidazol-4-yl]pentanoylamino]ethoxy]ethoxy]ethoxy]ethoxy]ethoxy]ethoxy]ethylcarbamoyl]phenoxy]pyridine-3-carbonyl]amino]-5,5-dimethyl-hexanoic acid]", "values": [{"measurement": "Kd", "setting": "[1]", "result": "10 to 250", "unit": "nM"}, {"measurement": "AUC score, target internalization", "setting": "[2]", "result": "+ (AUC < 100)"}, {"measurement": "AUC score, ternary complex formation", "setting": "[3]", "result": "+ (AUC < 25.000)"}]}, {"smiles": "CC(C)(C)CC[C@H](NC(=O)c1ccc(Oc2cccc(OCCOCCOCCOCCOCCOCCOCCOCCOCCNC(=O)CCCC[C@@H]3SC[C@@H]4NC(=O)N[C@@H]43)c2)nc1)C(=O)O", "note": "[BF026, (2S)-2-[[6-[3-[2-[2-[2-[2-[2-[2-[2-[2-[2-[5-[(3aS,4S,6aR)-2-oxo-1,3,3a,4,6,6a-hexahydrothieno[3,4-d]imidazol-4-yl]pentanoylamino]ethoxy]ethoxy]ethoxy]ethoxy]ethoxy]ethoxy]ethoxy]ethoxy]ethoxy]phenoxy]pyridine-3-carbonyl]amino]-5,5-dimethyl-hexanoic acid]", "values": [{"measurement": "Kd", "setting": "[1]", "result": "10 to 250", "unit": "nM"}, {"measurement": "AUC score, target internalization", "setting": "[2]", "result": "++ (AUC > 100)"}, {"measurement": "AUC score, ternary complex formation", "setting": "[3]", "result": "++ (AUC > 25.000)"}]}]}
